Reference: US9150508B2, “Sulfonamide compounds and their use in the modulation retinoid-related orphan receptor” (Glaxo Group Limited, priority 2011, dated 2015)

How the values were obtained:
[1] = system: IL-17A secreted from antiCD3/CD28 stimulated Peripheral Blood Mononuclear cells (PBMC); assay: Peripheral Blood Mononucleocyte Cell Assay (PBMC Assay-IL-17); type: cell-based; details: inhibition of IL-17A release, CD3/CD28 bead stimulated human PBMC, 48 hours; read-out: mean pIC50 (converted)
Description: Peripheral Blood Mononucleocyte Cell Assay (PBMC Assay-IL-17)
RORs (Retinoic Acid Related Orphan Receptors) are members of the class 1 nuclear receptor family. RORs regulate gene transcription by binding to specific DNA response element (RORE) as a monomer and have critical roles of in development, immunity, circadian rhythm, and cellular metabolism (recently reviewed by A Jetten, Nuclear Receptor Signaling, 2009, 7, 1-32) One member of this nuclear receptor family, RORγt, has been identified as a regulator of differentiation and development of IL-17-expressing human and mouse CD4+ T cells, so called Th17 cells which play a role in both host defence and inflammatory disorders. RORγt is also required for transcription of the genes encoding IL-17A and IL-17F in iNKT, NKT (Immunol 2009, 2(5), 383-392, J. Immunol, 2008, 180, 51(67), 5171-5171), γδTcells (J. Resp and Crit. Care Med 2010, 182(4), 464-476), CD8^+ Tcell (J Leukocyte Biol, 2007, 82(2), 354-360) and finally CD4-CD8-TCRαβ^+ T cells (J. Immunol. 2008, 181 8761-8766). Additional immune cells such as eosinophils, neutrophils and macrophages can also be source of IL17A in some allergic inflammation related to asthma (J Allergy Clin Immunol 2001, 108, 430-438; J. Immunol, 2008, 181, 6117-6124; Immunity, 2004, 21, 467-476), however, the link with RORγt has not yet been confirmed in the literature.
This assay is designed to measure levels of IL-17A secreted from antiCD3/CD28 stimulated frozen Peripheral Blood Mononuclear cells (PBMC) isolated from human blood with the aim of identifying inhibitors of IL-17A release.
• 1. Ensure no external endotoxin is present in media and reagents used in the assay. • 2. The compounds for screening are dispensed into a master plate at 10 mM top concentration which are serially diluted 1:3 across 11 points in DMSO, then 500 nl is transferred into a 384-well flat-bottomed Greiner plate to which 50 ul of cell suspension is added: for the single shot screening the highest concentration of compound is 10^−5M; for 11 point full curve dose response studies the highest concentration is […]. • Controls: • As a low control, DMSO (as supplied, for example, by VWR) (final concentration 1%) in column 6 (16 points). • As a high control, 5-(4-fluorophenyl)-2-ureidothiophene-3-carboxamide (obtainable from, for example, Sigma) at a final concentration of 10^−4 M in DMSO should be used in column 18 (16 points). • If the compounds dispensed earlier than the day of the assay, they should be kept at −20° C.
Protocol Step 2: Day 1: Thawing and Handing of PBMC • 1. Thaw PBMC in the vial using water bath (37° C.). […] Transfer the contents of the vial into 50 mL Falcon tube. • 3. Add 10 mL of Assay Media drop by drop to decrease the concentration of DMSO (as supplied, for example, by VWR) in the freezing media gradually. • 4. Spin down the cells in a centrifuge (1000 rpm-5 mins). • 5. Decant the supernatant. • 6. Re-suspend the cells in 10 mL of Assay Media. • 7. Transfer of 0.1 mL of suspension into Cedex counting tube. • 8. Add 0.9 mL of media to achieve volume of the suspension for counting up to 1 mL. Count the cells on Cedex using 1:10 dilution factor settings. • 9. Make the cell suspension at the concentration 8×10^5 cells/mL. to give a final number of 40,000 cells/well. Protocol Step 3: Day 1: Stimulation of PBMC with CD3/CD28 beads • 1. Add well mixed CD3/CD28 Dynabeads (as supplied, for example, by Dynal) to achieve ratio bead:cell=2:1 (i.e a dilution of 1 in 20). Mix thoroughly. • 2. Dispense the suspension into the 384 Assay Plates using Multidrop (50 ul per well). • If the volume of cell suspension is large, mix the suspension after dispensing into every other plate. • 3. Cover the plates with the lids and place them to the humidified incubator (37° C., 5% CO2) for 48 hours. Protocol Step 4: Day 2: MSD plates preparation • 1. […]

[2] = target: T1, Human RORγ Ligand Binding Domain (RORγ-LBD) (Homo sapiens, UniProt P51449); assay: Dual Fluorescence Energy Transfer (FRET) assay: RORγ-LBD / SRC1(2) co-activator peptide interaction; type: biochemical; details: RORγ-LBD/SRC1(2) peptide interaction, read-out: mean pIC50 (converted)
T1 construct: His6 plus thrombin site) (N); made in house; host or cells: E. coli BL21(DE3), modified pET21a
T1 sequence (P51449 263-518): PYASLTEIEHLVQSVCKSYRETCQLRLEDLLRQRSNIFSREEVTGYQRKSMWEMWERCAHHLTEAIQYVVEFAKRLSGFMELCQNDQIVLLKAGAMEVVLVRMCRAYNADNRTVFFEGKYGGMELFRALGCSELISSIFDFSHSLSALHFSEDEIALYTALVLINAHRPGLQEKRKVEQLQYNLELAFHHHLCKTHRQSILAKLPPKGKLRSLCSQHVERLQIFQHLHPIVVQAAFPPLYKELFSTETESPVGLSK
Description: Dual Fluorescence Energy Transfer (FRET) Assay
This assay is based on the knowledge that nuclear receptors interact with cofactors (transcription factors) in a ligand dependent manner. RORγ is a typical nuclear receptor in that it has an AF2 domain in the ligand binding domain (LBD) which interacts with co-activators. The sites of interaction have been mapped to the LXXLL (SEQ ID NO:1) motifs in the co-activator SRC1(2) sequences. Short peptide sequences containing the LXXLL (SEQ ID NO:1) motif mimic the behavior of full-length co-activator.
This assay measures ligand-mediated interaction of the co-activator peptide with the purified bacterial-expressed RORγ ligand binding domain (RORγ-LBD) to indirectly assess ligand binding. RORγ has a basal level of interaction with the co-activator SRC1(2) in the absence of ligand, Thus, it is possible to find ligands that inhibit or enhance the RORγ/SRC1(2) interaction.
Human RORγ Ligand Binding Domain (RORγ-LBD) was expressed in E. coli strain BL21(DE3) as an amino-terminal polyhistidine tagged fusion protein. DNA encoding this recombinant protein was sub-cloned into a modified pET21a expression vector (Novagen). A modified polyhistidine tag (MKKHHHHHHLVPRGS) (SEQ ID NO:2)was fused in frame to residues 263-518 of the human RORγ sequence.
Approximately 50 g E. coli cell pellet was resuspended in 300 mL of lysis buffer (30 mM imidazole pH 7.0 and 150 mM NaCl). Cells were lysed by sonication and cell debris was removed by centrifugation for 30 minutes at 20,000 g at 4° C. The cleared supernatant was filtered through a 0.45 uM cellulose acetate membrane filter. The clarified lysate was loaded onto a column (XK-26) packed with ProBond Nickel Chelating resin (InVitrogen), pre-equilibrated with 30 mM imidazole pH 7.0 and 150 mM NaCl. After washing to baseline absorbance with the equilibration buffer, the column was developed with a gradient from 30 to 500 mM imidazole pH 7.0. Column fractions containing the RORγ-LBD protein were pooled and concentrated to a volume of 5 mLs. The concentrated protein was loaded onto a Superdex 200 column pre-equilibrated with 20 mM Tris-Cl pH 7.2 and 200 mM NaCl. The fractions containing the desired RORγ-LBD protein were pooled together.
Purified RORγ-LBD was buffer exchanged by exhaustive dialysis [3 changes of at least 20 volumes (>8000×)] against PBS [100 mM NaPhosphate, pH 8 and 150 mM NaCl]. The concentration of RORγ-LBD was approximately 30 uM in PBS. Five-fold molar excess of NHS-LC-Biotin (Pierce) was added in a minimal volume of PBS. This solution was incubated with occasional gentle mixing for 60 minutes at ambient room temperature. The modified RORγ-LBD was dialyzed against 2 buffer changes—TBS pH 8.0 containing 5 mM DTT, 2 mM EDTA and 2% sucrose—each at least 20 times of the volume. The modified protein was distributed into aliquots, frozen on dry ice and stored at −80° C. The biotinylated RORγ-LBD was subjected to mass spectrometric analysis to reveal the extent of modification by the biotinylation reagent. In general, approximately 95% of the protein had at least a single site of biotinylation and the overall extent of biotinylation followed a normal distribution of multiple sites ranged from one to five.
A biotinylated peptide corresponding to amino acid 676 to 700 ([…]) (SEQ ID NO:3)of the co-activator steroid receptor coactivator SRC1(2) was generated using similar method.
Biotinylated SRC1(2) solution was prepared by adding an appropriate amount of biotinylated SRC1(2) from the 100 uM stock solution to a buffer containing 10 mM of freshly added DTT from solid to give a final concentration of 40 nM. An appropriate amount of Europium labeled Streptavidin was then added to the biotinylated SRC1(2) solution in a tube to give a final concentration of 10 nM. The tube was inverted gently and incubated for 15 minutes at room temperature. […]

CCCCc1ccc(N(CC(C)C)S(=O)(=O)c2ccc(OCc3c(C)noc3C)cc2)c(C)c1 [Product P23]
IC50 [1]: ≤ 1 µM

Cc1ccc(N(CC(C)C)S(=O)(=O)c2ccc(OCc3c(C)noc3C)cc2)c(C)c1 [Product P24]
IC50 [2]: ≤ 0.0158 µM
IC50 [1]: ≤ 1 µM

Cc1noc(C)c1COc1ccc(S(=O)(=O)N(CC(C)C)c2ccc(C(C)C)cc2)cc1 [Product P28]
IC50 [2]: ≤ 0.0158 µM
IC50 [1]: ≤ 1 µM

Cc1noc(C)c1COc1ccc(S(=O)(=O)N(CC(C)C)c2ccc(Cl)cc2)cc1 [Product P30]
IC50 [2]: ≤ 0.0158 µM
IC50 [1]: ≤ 1 µM

CCCc1ccc(N(CC(C)C)S(=O)(=O)c2ccc(OCc3c(C)noc3C)cc2)cc1 [Product P31]
IC50 [2]: ≤ 0.0158 µM
IC50 [1]: ≤ 1 µM

Cc1ccc(C(F)(F)F)cc1N(CC(C)C)S(=O)(=O)c1ccc(OCc2c(C)noc2C)cc1 [Product P33]
IC50 [2]: ≤ 0.0158 µM
IC50 [1]: ≤ 1 µM

Cc1ccc(C)c(N(CC(C)C)S(=O)(=O)c2ccc(OCc3c(C)noc3C)cc2)c1 [Product P37]
IC50 [1]: ≤ 1 µM

Cc1ccc(N(CC(C)C)S(=O)(=O)c2ccc(OCc3ccncc3)cc2)c(C)c1 [Product P98]
IC50 [2]: ≤ 0.0158 µM

Cc1ccc(F)cc1N(CC(C)C)S(=O)(=O)c1ccc(OCc2ccncc2)cc1 [Product P104]
IC50 [2]: ≤ 0.0158 µM

Cc1noc(C)c1COc1ccc(S(=O)(=O)N(CC(C)C)c2ccc(Cl)c(Cl)c2)cc1 [Product P114]
IC50 [2]: ≤ 0.0158 µM

Cc1cc(C)cc(N(CC(C)C)S(=O)(=O)c2ccc(OCc3c(C)noc3C)cc2)c1 [Product P118]
IC50 [1]: ≤ 1 µM

Cc1ccc(N(CC(C)C)S(=O)(=O)c2ccc(OCc3ccncc3)cc2)c(C)c1 [Product P123]
IC50 [1]: ≤ 1 µM

Cc1ccc(N(CC(C)C)S(=O)(=O)c2ccc(COCc3ccncc3)cc2)c(C)c1 [Product P128]
IC50 [1]: ≤ 1 µM

Cc1ccc(N(CC(C)C)S(=O)(=O)c2ccc(OCc3ncn(C)n3)cc2)c(C)c1 [Product P132]
IC50 [1]: ≤ 1 µM

Cc1ccccc1N(CC(C)C)S(=O)(=O)c1ccc(OCc2c(C)noc2C)cc1 [Product P137]
IC50 [1]: ≤ 1 µM

Cc1ccc(N(CC(C)C)S(=O)(=O)c2ccc(CCc3ccncc3)cc2)c(C)c1 [Product P140]
IC50 [2]: ≤ 0.0158 µM
IC50 [1]: ≤ 1 µM

Cc1ccc(N(CC(C)C)S(=O)(=O)c2ccc(OCCc3ccncc3)cc2)c(C)c1 [Product P141]
IC50 [2]: ≤ 0.0158 µM

Cc1ccc(N(CC(C)C)S(=O)(=O)c2ccc(OCCc3c(C)noc3C)cc2)c(C)c1 [Product P142]
IC50 [2]: ≤ 0.0158 µM

Cc1ccc(N(CC(C)C)S(=O)(=O)c2ccc(OCc3ccncn3)cc2)c(C)c1 [Product P143]
IC50 [1]: ≤ 1 µM

Cc1cc(Br)ccc1N(CC(C)C)S(=O)(=O)c1ccc(OCc2c(C)noc2C)cc1 [Product P144]
IC50 [1]: ≤ 1 µM

Cc1ccc(N(CC(C)C)S(=O)(=O)c2ccc(OCc3ncnn3C)cc2)c(C)c1 [Product P147]
IC50 [1]: ≤ 1 µM

Cc1ccc(N(CC(C)C)S(=O)(=O)c2ccc(OCC(O)c3ccncc3)cc2)c(C)c1 (centres unmarked) [Product P150, N-(2,4-dimethylphenyl)-4-(2-hydroxy-2-(pyridin-4-yl)ethoxy)-N-isobutylbenzenesulfonamide]
IC50 [2]: ≤ 0.0158 µM

Cc1cc(C(C)(C)O)ccc1N(CC(C)C)S(=O)(=O)c1ccc(OCc2c(C)noc2C)cc1 [Product P155, 4-((3,5-dimethylisoxazol-4-yl)methoxy)-N-(4-(2-hydroxypropan-2-yl)-2-methylphenyl)-N-isobutylbenzenesulfonamide]
IC50 [1]: ≤ 1 µM

CCc1ccc(N(CC(C)C)S(=O)(=O)c2ccc(OCc3c(C)noc3C)cc2)cc1 [Product P160, 4-((3,5-dimethylisoxazol-4-yl)methoxy)-N-(4-ethylphenyl)-N-isobutylbenzenesulfonamide]
IC50 [2]: ≤ 0.0158 µM
IC50 [1]: ≤ 1 µM

Cc1ccc(N(CC(C)C)S(=O)(=O)c2ccc(C(=O)O)cc2)c(C)c1 [Product P179, 4-(N-(2,4-dimethylphenyl)-N-isobutylsulfamoyl)benzoic acid]
IC50 [1]: > 100 µM
